These results are taken from patent publication US20260364184A1, “COMPOUND BASED ON OXOISOINDOLINYL-SUBSTITUTED TETRAHYDROPYRIMIDINE-DIONE AND USE THEREOF” (GLUETACS THERAPEUTICS (SHANGHAI) CO., LTD., priority 2023, published 2026).

Common to all, as to type: cell-based
One experiment deals with T1, ALK (Homo sapiens, UniProt Q9UM73).
T1 construct: known EML4-ALK variant 3 fusion, ALK kinase part unmutated), Western blot
Briefly: Western blot degradation of ALK. Particulars: H2228 Cell; 24 hours. As for the experimental part:
(§1) Conventional Western blot assay was performed to evaluate the effects of the compounds of the present disclosure on the expression of target proteins in cells.
(§2) (1) Cell Seeding and Protein Harvesting: The selected cells were processed according to the cell seeding procedure and protein harvesting procedure in Table II-2.
(§3) (2) To the collected supernatant, 5×SDS sample loading buffer was added, followed by denaturation at 95 °C for 5 minutes. The denatured samples were then separated by SDS-PAGE electrophoresis on a polyacrylamide gel. Proteins were transferred to a nitrocellulose membrane (0.45 μm NC membrane), blocked with blocking buffer at room temperature for 1 hour, and subjected to antibody incubation and development procedures according to the antibody manufacturer's instructions (Cell Signaling Technology).
(§4) Half-Maximal Degradation Concentration value (the drug concentration required for degrading proteins by 50%, abbreviated as DC50) reads method: comparing the grayscale values of Western blot bands from drug-treated samples with those from blank DMSO-treated controls, and identifying the drug concentration range at which the grayscale value is half that of the DMSO-treated control bands.
(§5) DC50 values can be calculated using ImageJ software to measure grayscale values of Western blot bands from drug-treated samples. The concentration-response curve is fitted to estimate the drug concentration corresponding to half the grayscale value.
(§6) Target protein remaining (%) refers to the percentage of target protein remaining in cells after treatment with protein degrader compounds.
(§7) Calculation method for target protein remaining (%): Use ImageJ software to measure grayscale values of Western blot bands from drug (protein degrader)-treated samples. The grayscale value of drug-treated bands is divided by that of internal control protein bands, and the resulting quotient is normalized to obtain the relative percentage of remaining target protein after protein degrader treatment.
(§8) Target protein degradation rate (%)=1−target protein remaining (%).
For orientation: A western blot detects proteins with antibodies after separation by electrophoresis.

The test system of experiment [1] is Human large cell immunoblastic lymphoma cell line SR. Briefly: Inhibition of SR cell proliferation (CellTiter luminescent viability). Particulars: Table IB1, ALK inhibitor-based, 96 hours, read-out: Inhibitory activity (IC50, nM) on tumor cell proliferation, SR. The protocol: The tumor cells used herein were cultured in a cell culture medium listed in table 3 at 37 °C in an incubator with 5% CO2. Prior to experimentation, all cell lines used were correctly identified by STR profiling, and tested negative for mycoplasma contamination using a mycoplasma detection kit through routine screenings.
The IC50 values of the compounds of the present disclosure (including the compounds in Table 1, Table 2, and Examples 1-468) were determined using the CellTiter-Meiluncell Luminescent Cell Viability Assay Kit from Dalian Meilun Biotech Co., Ltd. The detailed procedure is as follows: Tumor cells were seeded in 96-well cell culture plates at the densities specified in Table 4. On the following day, the test compounds of the present disclosure were subjected to serial dilution. The dilution can be performed according to one of the following two methods: • (1) The first dilution method: The test compounds of the present disclosure (including the compounds in Table 1, Table 2, and Examples 1-468) were subjected to 5-fold serial dilutions starting from a highest concentration of 2000 μM, resulting in a total of 9 concentrations from high to low (2000, 400, 80, 16, 3.2, 0.64, 0.128, 0.0256, 0.00512 μM). Subsequently, 0.5 μL of the test compound dilution was transferred into the 96-well plate containing the cells, with each well containing 100 μL of cell culture medium. […] Into the 96-well plate, the diluted test compounds and corresponding detection reagents were added, resulting in final test compound concentrations of 500 nM and 10 nM, respectively. The experimental procedure is described below using the diluted 2 μM test compound as an example.
0.5 μL of the aforementioned diluted compound of the present disclosure (including the compounds in Table 1, Table 2, and Examples 1-468) was added to the seeded cells in 100 μL of medium, yielding a final test compound concentration of 10 nM. After the cells were treated with the compounds of the present disclosure for a specified period, the cell viability assay reagent was added to the culture medium according to the kit's instructions to determine cell viability. […] All controls were treated using the same procedure as the compounds of the present disclosure. The growth inhibition curves for the compounds of the present disclosure were plotted using Prism GraphPad software, and the IC50 values were calculated therefrom.

In experiment [2] the test system is Human T lymphocytic leukemia cell line (Jurkat). Briefly: Inhibition of Jurkat cell proliferation (CellTiter luminescent viability). Particulars: Homo sapiens, Table IF3, AR inhibitor-based, 96 hours.
For experiment [3], the system named is Human acute lymphocytic leukemia T lymphocytes cell line (CCRF-CEM). Briefly: Inhibition of CCRF-CEM cell proliferation (CellTiter luminescent viability). As to conditions: Homo sapiens, 96 h, Table IF2, AR inhibitor-based.
Experiment [4] concerns Human diffuse large B-cell lymphoma cell line (TMD8). Kind of experiment: Inhibition of TMD8 cell proliferation (CellTiter luminescent viability). As to conditions: Homo sapiens, TMD8, 96 h, Table IF1, AR inhibitor-based.
The next experiment deals with T2, AR (Homo sapiens, UniProt P10275).
T2 construct: expression of target proteins in cells; endogenous in cells
T2 sequence (P10275 1-920): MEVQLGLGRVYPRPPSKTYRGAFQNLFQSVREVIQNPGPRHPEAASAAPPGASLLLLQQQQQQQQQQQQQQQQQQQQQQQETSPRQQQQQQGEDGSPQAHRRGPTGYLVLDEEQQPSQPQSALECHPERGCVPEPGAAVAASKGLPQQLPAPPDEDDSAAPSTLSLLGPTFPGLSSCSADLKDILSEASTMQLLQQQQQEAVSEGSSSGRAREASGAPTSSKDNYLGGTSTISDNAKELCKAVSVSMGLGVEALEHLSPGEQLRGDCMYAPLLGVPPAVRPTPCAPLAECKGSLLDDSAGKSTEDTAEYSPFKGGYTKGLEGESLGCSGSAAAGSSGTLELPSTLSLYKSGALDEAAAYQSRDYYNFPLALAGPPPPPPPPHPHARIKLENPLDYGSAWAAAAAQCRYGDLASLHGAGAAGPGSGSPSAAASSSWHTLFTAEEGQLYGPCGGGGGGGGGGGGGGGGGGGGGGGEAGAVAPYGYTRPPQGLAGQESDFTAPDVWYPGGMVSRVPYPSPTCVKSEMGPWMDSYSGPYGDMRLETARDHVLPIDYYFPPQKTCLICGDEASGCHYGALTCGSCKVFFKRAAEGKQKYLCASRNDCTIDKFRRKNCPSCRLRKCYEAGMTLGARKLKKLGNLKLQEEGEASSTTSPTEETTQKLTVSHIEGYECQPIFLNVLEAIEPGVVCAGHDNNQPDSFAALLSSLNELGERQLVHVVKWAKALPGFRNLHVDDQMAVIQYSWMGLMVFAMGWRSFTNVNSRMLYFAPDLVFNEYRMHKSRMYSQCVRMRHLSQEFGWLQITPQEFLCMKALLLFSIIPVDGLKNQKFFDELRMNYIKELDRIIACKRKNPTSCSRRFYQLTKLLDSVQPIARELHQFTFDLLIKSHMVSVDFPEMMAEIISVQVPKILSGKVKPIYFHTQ
Kind of experiment: Western blot degradation of AR. As to conditions: LnCap Cell; 24 hours. The protocol:
as §1, §2, §3, §4, §5, §6, §7, §8

Where [5] appears, read: 10 nM, read-out: Inhibition Rate at 10 nM (%).
Setting [6] is: 500 nM, read-out: Inhibition Rate at 500 nM (%).

Structures are written as SMILES.

T1 sequence (Q9UM73 19-1620): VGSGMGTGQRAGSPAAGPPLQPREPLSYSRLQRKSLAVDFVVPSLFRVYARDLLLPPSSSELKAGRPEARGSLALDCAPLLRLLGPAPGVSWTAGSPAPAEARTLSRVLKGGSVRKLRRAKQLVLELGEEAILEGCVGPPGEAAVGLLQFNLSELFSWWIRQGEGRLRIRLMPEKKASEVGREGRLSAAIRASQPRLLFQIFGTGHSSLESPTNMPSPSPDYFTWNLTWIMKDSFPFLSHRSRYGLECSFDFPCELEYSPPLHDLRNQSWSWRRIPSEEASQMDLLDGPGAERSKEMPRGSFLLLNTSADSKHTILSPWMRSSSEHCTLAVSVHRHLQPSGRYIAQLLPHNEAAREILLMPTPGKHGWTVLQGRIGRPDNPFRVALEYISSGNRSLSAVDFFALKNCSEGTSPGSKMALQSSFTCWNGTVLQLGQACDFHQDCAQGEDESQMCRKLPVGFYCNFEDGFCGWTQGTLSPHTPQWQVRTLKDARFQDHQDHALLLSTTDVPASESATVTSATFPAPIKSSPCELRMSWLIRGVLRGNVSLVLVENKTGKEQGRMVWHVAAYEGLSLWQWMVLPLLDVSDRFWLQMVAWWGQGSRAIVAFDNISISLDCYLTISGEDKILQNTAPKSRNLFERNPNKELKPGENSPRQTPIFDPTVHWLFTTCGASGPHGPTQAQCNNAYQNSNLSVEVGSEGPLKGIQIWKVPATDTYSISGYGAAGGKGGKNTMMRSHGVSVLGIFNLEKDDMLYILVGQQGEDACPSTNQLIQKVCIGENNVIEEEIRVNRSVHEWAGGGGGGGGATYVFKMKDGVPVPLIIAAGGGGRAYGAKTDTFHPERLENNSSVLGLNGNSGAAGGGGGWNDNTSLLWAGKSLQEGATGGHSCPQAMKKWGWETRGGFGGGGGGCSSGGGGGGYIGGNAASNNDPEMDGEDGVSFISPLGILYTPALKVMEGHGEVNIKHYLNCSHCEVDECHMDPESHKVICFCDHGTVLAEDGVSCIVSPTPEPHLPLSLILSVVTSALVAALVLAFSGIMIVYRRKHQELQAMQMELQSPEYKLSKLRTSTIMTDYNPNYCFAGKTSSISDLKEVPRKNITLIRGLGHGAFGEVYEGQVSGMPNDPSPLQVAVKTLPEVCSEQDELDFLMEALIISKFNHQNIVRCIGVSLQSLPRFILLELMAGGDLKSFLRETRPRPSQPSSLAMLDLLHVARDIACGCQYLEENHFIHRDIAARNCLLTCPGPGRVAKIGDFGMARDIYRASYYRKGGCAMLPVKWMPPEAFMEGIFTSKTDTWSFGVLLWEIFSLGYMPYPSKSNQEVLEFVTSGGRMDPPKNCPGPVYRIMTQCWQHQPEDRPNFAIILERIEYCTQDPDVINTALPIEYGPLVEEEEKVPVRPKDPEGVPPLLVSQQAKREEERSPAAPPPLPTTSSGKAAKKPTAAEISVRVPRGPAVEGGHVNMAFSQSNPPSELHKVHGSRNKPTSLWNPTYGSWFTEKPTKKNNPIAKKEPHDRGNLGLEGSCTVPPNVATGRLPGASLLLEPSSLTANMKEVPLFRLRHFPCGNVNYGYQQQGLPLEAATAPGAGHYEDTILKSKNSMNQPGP
T1 sequence (Q96SW2 whole entry partner, the tested form may be a part): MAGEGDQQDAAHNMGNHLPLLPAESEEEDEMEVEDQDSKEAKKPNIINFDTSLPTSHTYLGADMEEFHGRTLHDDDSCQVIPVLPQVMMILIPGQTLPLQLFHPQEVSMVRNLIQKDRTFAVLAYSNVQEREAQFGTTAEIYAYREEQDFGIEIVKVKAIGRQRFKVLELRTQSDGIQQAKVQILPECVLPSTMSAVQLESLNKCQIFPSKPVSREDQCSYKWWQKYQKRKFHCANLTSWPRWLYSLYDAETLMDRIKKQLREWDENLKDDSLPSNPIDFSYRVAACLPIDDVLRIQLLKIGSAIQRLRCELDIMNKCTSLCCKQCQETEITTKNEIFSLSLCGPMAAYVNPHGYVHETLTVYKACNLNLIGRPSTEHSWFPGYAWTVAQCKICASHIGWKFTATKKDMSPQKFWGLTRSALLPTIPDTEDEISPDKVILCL

In the case of `CCc1cc2c(cc1N1CCC(N3CCN(Cc4ccc5c(c4)C(=O)N(N4CCC(=O)NC4=O)C5=O)CC3)CC1)C(C)(C)c1[nH]c3cc(C#N)ccc3c1C2=O` [GT-04661, 8-(4-(4-((2-(2,4-dioxotetrahydropyrimidin-1(2H)-yl)-1,3-dioxoisoindolin-5-yl)methyl)piperazin-1-yl)piperidin-1-yl)-9-ethyl-6,6-dimethyl-11-oxo-6,11-dihydro-5H-benzo[b]carbazole-3-carbonitrile], the “Degradation of substrate protein ALK (substrate protein remaining %)” value on ALK is “A (0%≤substrate protein remaining %≤80%)”.
Take `COc1cc(N2CCN(CC3CCN(c4ccc5c(c4)C(=O)N(N4CCC(=O)NC4=O)C5=O)CC3)CC2)ccc1Nc1ncc(Cl)c(Nc2ccccc2P(C)(C)=O)n1` [GT-07343, 5-(4-((4-(4-((5-chloro-4-((2-(dimethylphosphoryl)phenyl)amino)pyrimidin-2-yl)amino)-3-methoxyphenyl)piperazin-1-yl)methyl)piperidin-1-yl)-2-(2,4-dioxotetrahydropyrimidin-1(2H)-yl)isoindoline-1,3-dione]: in experiment [1], the IC50 was in the range of 50 to 100 nM. The “Degradation of substrate protein ALK (substrate protein remaining %)” value at ALK is given as “A (0%≤substrate protein remaining %≤80%)”.
Consider `COc1cc(N2CCN(CC3CCN(c4cccc5c4C(=O)N(N4CCC(=O)NC4=O)C5=O)CC3)CC2)ccc1Nc1ncc(Cl)c(Nc2ccccc2P(C)(C)=O)n1` [GT-07344, 4-(4-((4-(4-((5-chloro-4-((2-(dimethylphosphoryl)phenyl)amino)pyrimidin-2-yl)amino)-3-methoxyphenyl)piperazin-1-yl)methyl)piperidin-1-yl)-2-(2,4-dioxotetrahydropyrimidin-1(2H)-yl)isoindoline-1,3-dione], for which the IC50 in experiment [1] lay in the range of 50 to 100 nM. Further, the “Degradation of substrate protein ALK (substrate protein remaining %)” value on ALK is on record as “A (0%≤substrate protein remaining %≤80%)”.
For `CCc1cc2c(cc1N1CCC(N3CCN(Cc4ccc5c(c4)CN(N4CCC(=O)NC4=O)C5=O)CC3)CC1)C(C)(C)c1[nH]c3cc(C#N)ccc3c1C2=O` [GT-06822, 8-(4-(4-((2-(2,4-dioxotetrahydropyrimidin-1(2H)-yl)-1-oxoisoindolin-5-yl)methyl)piperazin-1-yl)piperidin-1-yl)-9-ethyl-6,6-dimethyl-11-oxo-6,11-dihydro-5H-benzo[b]carbazole-3-carbonitrile] the same measures were 10 to 50 nM and “A (0%≤substrate protein remaining %≤80%)”.
Turning to `CCc1cc2c(cc1N1CCC(N3CCN(CC4CCN(c5ccc6c(c5)C(=O)N(N5CCC(=O)NC5=O)C6=O)CC4)CC3)CC1)C(C)(C)c1[nH]c3cc(C#N)ccc3c1C2=O` [GT-06823, 8-(4-(4-((1-(2-(2,4-dioxotetrahydropyrimidin-1(2H)-yl)-1,3-dioxoisoindolin-5-yl)piperidin-4-yl)methyl)piperazin-1-yl)piperidin-1-yl)-9-ethyl-6,6-dimethyl-11-oxo-6,11-dihydro-5H-benzo[b]carbazole-3-carbonitrile], in experiment [1], the IC50 was in the range of 10 to 50 nM. Besides, the “Degradation of substrate protein ALK (substrate protein remaining %)” value at ALK was “A (0%≤substrate protein remaining %≤80%)”.
In the case of `COc1cc(N2CCC(CN3CC4CCC(C3)N4c3ccc4c(c3)C(=O)N(N3CCC(=O)NC3=O)C4=O)CC2)ccc1Nc1ncc(Cl)c(Nc2ccccc2P(C)(C)=O)n1` [GT-08530, 5-(3-((1-(4-((5-chloro-4-((2-(dimethylphosphoryl)phenyl)amino)pyrimidin-2-yl)amino)-3-methoxyphenyl)piperidin-4-yl)methyl)-3,8-diazabicyclo[3.2.1]octan-8-yl)-2-(2,4-dioxotetrahydropyrimidin-1(2H)-yl)isoindoline-1,3-dione], the “Degradation of substrate protein ALK (substrate protein remaining %)” value at ALK is given as “A (0%≤substrate protein remaining %≤80%)”.
Same read-out and setting: the value for `COc1cc(N2CCC(N(C)Cc3ccc4c(c3)C(=O)N(N3CCC(=O)NC3=O)C4=O)CC2)ccc1Nc1ncc(Cl)c(Nc2ccccc2P(C)(C)=O)n1` [GT-04660, 5-(((1-(4-((5-chloro-4-((2-(dimethylphosphoryl)phenyl)amino)pyrimidin-2-yl)amino)-3-methoxyphenyl)piperidin-4-yl)(methyl)amino)methyl)-2-(2,4-dioxotetrahydropyrimidin-1(2H)-yl)isoindoline-1,3-dione] was “A (0%≤substrate protein remaining %≤80%)”.
For orientation: inhibition means the percentage by which the read-out fell short of the control. As for `CC1(C)[C@H](NC(=O)c2ccc(N3CCC(CN4C5CCC4CN(c4ccc6c(c4)C(=O)N(N4CCC(=O)NC4=O)C6=O)C5)CC3)nc2)C(C)(C)[C@H]1Oc1ccc(C#N)c(Cl)c1` [GT-05826, N-((1r,3r)-3-(3-chloro-4-cyanophenoxy)-2,2,4,4-tetramethylcyclobutyl)-6-(4-((3-(2-(2,4-dioxotetrahydropyrimidin-1(2H)-yl)-1,3-dioxoisoindolin-5-yl)-3,8-diazabicyclo[3.2.1]octan-8-yl)methyl)piperidin-1-yl)nicotinamide], the inhibition at 0.01 µM in experiment [2] (setting [5]) was in the range of 20 to 30%; in experiment [3] (setting [5]) it was 20 to 30%; in experiment [4] (TMD8, 10 nM, read-out: Inhibition Rate at 10 nM (%)) it was 25 to 30%. Besides, the inhibition at 0.5 µM in experiment [2] (setting [6]) fell in the range of 40 to 60%; in experiment [3] (setting [6]) it was 40 to 60%; in experiment [4] (TMD8, 500 nM, read-out: Inhibition Rate at 500 nM (%)), 40 to 60%. Further, on AR, the “Degradation of substrate protein AR (substrate protein remaining %)” value is on record as “A (0%≤substrate protein remaining %≤80%)”.
